# Values of other authors, collected in US5300300A, “Controlled release gastroresistant pharmaceutical formulations for oral administration containing bile acids and their salts” (Alfa Wassermann S.p.A., priority 1991, dated 1994).
# How the values were obtained:
# [1] = complete solubilization takes place only at this pH
structure (smiles),measurement,setting,value
C[C@H](CCC(=O)O)[C@H]1CC[C@H]2[C@@H]3[C@@H](O)C[C@@H]4C[C@H](O)CC[C@]4(C)[C@H]3CC[C@]12C [ursodeoxycholic acid],pH of complete solubilization,[1],8.47 pH
same,dissolution in the intestine,after having crossed the stomach unabsorbed and undissolved,dissolve very slowly in the intestine
same,intestinal pH needed for complete solubilization and absorption,"intestinal pH, completely solubilized and absorbed only when exceeded",> 8.4 pH
